Experimental data published in ChEMBL document CHEMBL1147837, “Methyl 2-(2-(4-formylphenoxy)acetamido)-2-substituted acetate derivatives: a new class of acetylcholinesterase inhibitors” (Bioorg Med Chem Lett, 2007).

Experiments:
Acetylcholinesterase = Acetylcholinesterase (Torpedo californica, UniProt P04058); assay: Inhibition of AChE
Butyrylcholinesterase = Butyrylcholinesterase (Equus caballus, UniProt Q9N1N9); assay: Inhibition of BuChE in horse serum
[1] = Selectivity for Torpedo californica AChE over horse BuChE

Chain of Acetylcholinesterase (P04058 whole entry): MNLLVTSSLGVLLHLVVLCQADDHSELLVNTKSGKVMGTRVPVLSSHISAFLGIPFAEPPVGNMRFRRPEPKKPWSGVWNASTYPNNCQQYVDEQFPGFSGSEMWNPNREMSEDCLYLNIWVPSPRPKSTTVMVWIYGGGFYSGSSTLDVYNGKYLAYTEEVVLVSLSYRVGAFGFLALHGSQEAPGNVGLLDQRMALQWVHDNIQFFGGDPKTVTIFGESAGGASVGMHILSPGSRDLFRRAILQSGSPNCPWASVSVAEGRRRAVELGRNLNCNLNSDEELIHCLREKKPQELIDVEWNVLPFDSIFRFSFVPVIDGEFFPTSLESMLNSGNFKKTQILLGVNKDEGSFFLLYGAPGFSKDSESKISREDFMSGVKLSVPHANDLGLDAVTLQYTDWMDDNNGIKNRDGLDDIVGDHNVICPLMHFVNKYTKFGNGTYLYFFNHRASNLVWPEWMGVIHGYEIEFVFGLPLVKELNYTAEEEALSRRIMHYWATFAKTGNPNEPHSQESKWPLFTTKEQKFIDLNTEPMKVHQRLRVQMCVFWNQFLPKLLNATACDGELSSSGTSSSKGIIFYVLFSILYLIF
Chain of Butyrylcholinesterase (Q9N1N9 whole entry): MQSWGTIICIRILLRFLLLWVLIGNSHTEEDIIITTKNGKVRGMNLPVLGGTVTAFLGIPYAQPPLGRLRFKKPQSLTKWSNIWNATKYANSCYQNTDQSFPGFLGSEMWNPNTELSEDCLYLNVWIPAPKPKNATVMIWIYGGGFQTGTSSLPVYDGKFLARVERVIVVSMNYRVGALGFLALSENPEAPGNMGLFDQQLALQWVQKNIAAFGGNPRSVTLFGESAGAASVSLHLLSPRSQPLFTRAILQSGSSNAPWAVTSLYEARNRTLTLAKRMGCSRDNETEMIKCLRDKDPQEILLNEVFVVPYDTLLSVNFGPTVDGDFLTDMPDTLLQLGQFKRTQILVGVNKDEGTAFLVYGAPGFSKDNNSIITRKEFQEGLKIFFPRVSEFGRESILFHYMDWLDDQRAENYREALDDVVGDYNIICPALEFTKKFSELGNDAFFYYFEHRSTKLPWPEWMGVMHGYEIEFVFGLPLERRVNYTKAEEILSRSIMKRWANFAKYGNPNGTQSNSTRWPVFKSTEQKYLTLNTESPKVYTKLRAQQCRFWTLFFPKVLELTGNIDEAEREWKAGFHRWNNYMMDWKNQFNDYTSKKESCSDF

In the case of `O=Cc1ccc(O)cc1` [4-HYDROXYBENZALDEHYDE], the IC50 (Acetylcholinesterase) is reported as greater than 1000 µM.
With `COC(=O)C(Cc1ccccc1)NC(=O)COc1ccc(C=O)cc1` (stereo not drawn) the IC50 (Acetylcholinesterase) was 4.96 µM.
In the case of `COC(=O)CCC(NC(=O)COc1ccc(C=O)cc1)C(=O)OC` (stereo not drawn), the IC50 (Acetylcholinesterase) is reported as greater than 200 µM.
In the case of `COC(=O)C(C)NC(=O)COc1ccc(C=O)cc1` (stereo not drawn), the IC50 (Acetylcholinesterase) is reported as 0.19 µM.
`COC(=O)CNC(=O)COc1ccc(C=O)cc1` gave an IC50 (Acetylcholinesterase) of 98.9 µM.
`COC(=O)C(Cc1c[nH]c2ccccc12)NC(=O)COc1ccc(C=O)cc1` (stereo not drawn) showed an IC50 (Acetylcholinesterase) of 0.28 µM, an IC50 (Butyrylcholinesterase) of 33.9 µM and a Ratio IC50 [1] of 121.
